Data reported in patent US20250154202A1, “CYCLIC EPITOPE TAGS” (BIONTECH SE, priority 2022, published 2025).
Where two headings read alike, the source gives them in different places.

Legend:
[1] = mouse, in vivo, iv; for AUC(0-inf): AUC0-inf; for AUC(0-t): AUC0-t
Protocol: (§1) C57BL/6NRj mice were obtained from Janvier Labs, France. In this study, approximately 8-week-old female mice were used.
(§2) Prior to administration into the lateral tail vein, the body weight of the animals was determined to calculate the individual volume of the injecting compound (5 mL/kg body weight). The injection, as well as the blood sampling, were carried out under short anesthesia (0.7 L/min O2, 1.7 L/min N2O, 2% Isoflurane). Blood was sampled from the retro-orbital plexus using microhematocrit capillary (Ø 0.8 mm) and collected into K3EDTA tubes, at the time points indicated in Table 10.
(§3) The plasma was separated by centrifugation (10,000×g; 10 min; 4° C.), aliquoted into microtubes and stored at −80° C.
(§4) 20 μl of each plasma sample was transferred into PCR tubes. 80 μl IS (internal standard)-solution in acetonitrile+1% FA was added for protein precipitation.
(§5) The sample tubes were sealed with pierceable cap mats and vortexed. After homogenization for 5 min in an ultrasonic bath the samples were centrifuged at 3000 rpm at ambient temperature for 15 min. 1 μl supernatant was injected into the instrument for LC-MS/MS analysis. For LC-MS/MS quantification a ExionLC™ UHPLC coupled to a QTRAP® 6500+ mass spectrometer (Sciex) was used in ESI positive mode. Parameters for mass spectrometry were listed in the tables below, Chromatographic separation was achieved on a ACQUITY UPLC BEH C18 column (Waters, 1.7 μm, 2.1×50 mm).
(§6) Compound concentrations in plasma samples were calculated using a 10-point calibration curve in plasma over a concentration range of 1 to 1000 ng/ml. QC samples of 1, 10, 100, 1000 ng/ml were analyzed before and after each dose group. Samples exceeding the upper limit of quantification (1000 ng/ml) were re-analyzed after 10-fold dilution in blank plasma. All calculations were performed in Sciex OS Version 1.7.0.36606 and MS-EXCEL®.
(§7) Pharmacokinetic parameters were calculated for both compounds using the software Kinetica (version 4.4.1, Thermo Scientific) applying a non-compartmental model (NCA).

[2] = human, plasma
Protocol: (§8) Plasma stability measurements were performed by spiking 5 μl of a 1 mM compound stock solution in DMSO into 495 μl of human or mouse Li-heparin plasma (Innovative Research, Cat. No, IPLALIH5OML (human) and IMS-BC-N (Balb C mouse). The spiked plasma was distributed in 50 μl aliquots into capped PCR tubes for incubation at 37° C. At each time point (0, 2, 6, 24 hours*) 3*aliquots were withdrawn from the incubator. Enzymatic reactions were quenched directly after withdrawal by adding 100 μl of acetonitrile/formic acid=99/1 (v/v). Quenched samples were stored at ambient temperature until the end of the incubation period (24 hrs*). After centrifugation, the supernatant was transferred into fresh vials and analyzed by LC-MS/MS in ESI positive mode (Waters ACQUITY UPLC I-Class System (SM-FTN) with Xevo TQD triple quadrupole mass spectrometer with control software Waters MassLynx). […] Values below the limit of quantification (0.1 μM) and outliers of triplicate results were excluded from further calculations. An exponential regression curve was fitted onto the concentration results. Half-life times were calculated from the slope of the regression curve (t1/2=ln(2)/slope).
(§9) For some samples, as indicated below, the incubation time was 6 hours. The 24 hour data was measured in triplicates whereas the 6 hour data was measured in duplicates.

in vitro [3] = settings: human, plasma, Conc. (% of T0)
Protocol: as §8, §9

in vitro [4] = settings: Balb C, mouse, plasma
[5] = mouse, in vivo, iv
Protocol: as §1, §2, §3, §4, §5, §6, §7

[6] = mouse, plasma
in vivo = settings: female, C57BL/6NRj, mouse, iv, 10 mg/kg
Protocol: as §1, §2, §3, §4, §5, §6, §7

- MRT inf ([1]; 3 mg/kg): 4 min
- MRT last ([1]; 3 mg/kg): 3.7 min
- Tmax ([1]; 3 mg/kg): 5 min
- clearance ([1]; 3 mg/kg): 962 mL/min/kg
- AUC(0-inf) ([1]; 3 mg/kg): ~52 ng·h/mL
- AUC(0-t) ([1]; 3 mg/kg): 51 ng·h/mL
- C0 ([1]; 3 mg/kg): ~656 ng/mL
- Cmax ([1]; 3 mg/kg): 306 ng/mL
- Vd ([1]; 3 mg/kg, Vss): 3.89 L/kg
- Vd ([1]; 3 mg/kg, Vz): ~6.3 L/kg
- MRT inf ([1]; 10 mg/kg): 4.1 min
- MRT last ([1]; 10 mg/kg): 4 min
- Tmax ([1]; 10 mg/kg): 5 min
- clearance ([1]; 10 mg/kg): 724 mL/min/kg
- AUC(0-inf) ([1]; 10 mg/kg): 230 ng·h/mL
- AUC(0-t) ([1]; 10 mg/kg): 230 ng·h/mL
- C0 ([1]; 10 mg/kg): ~2400 ng/mL
- Cmax ([1]; 10 mg/kg): 1660 ng/mL
- Vd ([1]; 10 mg/kg, Vss): 2.95 L/kg
- Vd ([1]; 10 mg/kg, Vz): 4.48 L/kg
- half-life ([2]; Flag (half-life, assay exceeded)): > 360 min
- half-life ([2]; Half-life time): 646 min
- remaining at 1 h, 10 µM (in vitro [3]): 89%
- remaining at 3 h, 10 µM (in vitro [3]): 78.9%
- remaining at 6 h, 10 µM (in vitro [3]): 66.9%
- remaining at 2 h, 10 µM (in vitro [4]): 72.7%
- remaining at 6 h, 10 µM (in vitro [4]): 33.8%
- AUCextra ([5]; 3 mg/kg): ~1.5^(1) %
- Vc ([5]; 3 mg/kg): ~4574^(1) mL/kg
- t1/2effective ([5]; 3 mg/kg): ~2.6^(1) min
- t1/2initial ([5]; 3 mg/kg): ~1.6^(1) min
- t1/2terminal ([5]; 3 mg/kg): ~4.5^(1) min
- λinitial ([5]; 3 mg/kg): 0.45^(2) min^−1
- λterminal ([5]; 3 mg/kg): 0.15^(2) min^−1
- AUCextra ([5]; 10 mg/kg): 0.2%
- Vc ([5]; 10 mg/kg): ~4175^(1) mL/kg
- t1/2effective ([5]; 10 mg/kg): 2.8 min
- t1/2initial ([5]; 10 mg/kg): ~1.3^(1) min
- λinitial ([5]; 10 mg/kg): 0.52^(2) min^−1
- λterminal ([5]; 10 mg/kg): 0.16 min⁻¹
- half-life [6]: 228 min
- half-life (in vivo): 4.3 min
Substance: Ac-PSRLEEELRRRLTE-NH2 [SD14316, Ac-Pro-Ser-Arg-Leu-Glu-Glu-Glu-Leu-Arg-Arg-Arg-Leu-Thr-Glu-NH2]
